Results on one compound are retold here after PMC11546339, “Conformational Plasticity Enhances the Brain Penetration of a Metabolically Stable, Dual-Functional Opioid-Peptide CycloAnt” (International Journal of Molecular Sciences, 2024).

One series is described as follows: Stability in mouse serum. Format: in vitro ADME. As to conditions: 37 °C, read-out: percentage of CycloAnt remaining in mouse serum. The protocol: Proteolytic instability is a major hurdle limiting the development of peptide drug. As blood is a major source of proteases that degrade peptides, we evaluated the stability of CycloAnt in mouse serum. CycloAnt at a final concentration of 20 µM was incubated with mouse serum (SigmaAldrich) at 37 °C for 8 h. At 0, 15, 30, 60, 120, 240, and 480 min, the incubation was terminated by adding 2 volumes of ice-cold acetonitrile to precipitate the proteins in the sample. After centrifugation at 10,000 rpm, supernatant was collected. The processed sample was analyzed by liquid chromatography tandem mass spectrometry (LC-MS/MS). The percentage of CycloAnt remaining at each time point was calculated (Figure 1).
Stability in mouse serum. CycloAnt was dissolved in pH 7.2 phosphate buffer saline (PBS). A total of 175 µL of CycloAnt at a final concentration of 20 µM was mixed with 2.625 mL of 100% mouse serum (SigmaAldrich) and incubated at 37 °C. The mixture was analyzed over a time course of 8 h. At the time points of 0, 15, 30, 60, 120, 240, and 480 min, 150 µL of sample were withdrawal and the reaction was terminated with 300 μL of ice-cold acetonitrile containing internal standard (IS, Tyr-[D-Lys-Phe-Tyr-Gly] at 200 ng/mL). The mixture was centrifuged at 10,000 rpm at 4 °C for 10 min. […] The percentage of peptide remaining at each time point was calculated relative to 0 min. […]

A short description of series [1]: Pharmacokinetic study in mice (plasma and brain). The class given is in vivo. As to conditions: male, C57BL/6, mouse, ip, 3 mg/kg i.p. The protocol:
To evaluate the amount of CycloAnt in mouse brain, we performed a pharmacokinetic experiment in mice. Mice were given CycloAnt at 3 mg/kg i.p.; blood was collected at 0, 15, 30, and 60 min post-injection. Immediately after the blood was collected, the mouse was intracardially perfused through the left ventricle with 20 mL PBS. The whole brain was isolated and homogenized. The blood and brain samples were processed by protein precipitation and centrifugation. The supernatants of the blood and brain samples were collected and analyzed by LC-MS/MS.
Pharmacokinetic study. Standard curve. Following euthanasia, mouse blood was collected in a heparin anticoagulation tube and the whole brain was isolated. For determination of the standard curve in mouse blood, 300 μL of blood was spiked with 0, 10, 100, and 1000 ng of CycloAnt, respectively, followed by adding 600 μL of ice-cold acetonitrile containing the internal standard (IS, Tyr-[D-Lys-Phe-Tyr-Gly]) at 200 ng/mL. The blood samples were thoroughly mixed and centrifuged at 10,000 rpm at 4 °C for 10 min. An aliquot of 600 μL of supernatant from each sample was collected and dried under vacuum, followed by reconstitution of the dried blood sample in 100 μL 20% acetonitrile. The reconstituted sample was centrifuged at 13,000 rpm, 4 °C for 5 min to remove the lipid content. The supernatant was collected for LC-MS/MS analysis. For mouse brain, the brain was homogenized with 250 μL of PBS at 0 °C, followed by adding 1 mL of ice-cold acetonitrile containing the IS. The brain sample was then spiked with 0, 10, 100, and 1000 ng of CycloAnt, respectively, and thoroughly mixed and centrifuged at 10,000 rpm, 4 °C for 10 min. An aliquot of 1000 μL of supernatant was collected and dried under vacuum, followed by adding 100 μL 20% acetonitrile to reconstitute the dried brain sample. The reconstituted sample was mixed and centrifugating at 13,000 rpm, 4 °C for 5 min to remove the lipid content. The supernatant was collected and analyzed by LC-MS/MS.
The peak areas of CycloAnt and IS were recorded; the relative measured concentration of CycloAnt was calculated using the ratio of CycloAnt peak area vs. IS peak area. A standard concentration curve (Figure S8) was then generated for CycloAnt in the matrix of blood and brain, respectively.
Pharmacokinetics. Eight-week-old male C57BL/6 mice (Jackson Laboratories, Bar Harbor, ME, USA) were used for pharmacokinetic studies. CycloAnt was given to mice (n = 2) i.p. at a dose of 3 mg/kg. At 15, 30, and 60 min post-administration, mouse blood was collected in a heparin anticoagulation tube. After blood collection, the mouse was intracardially perfused through the left ventricle with 20 mL PBS, followed by isolation of the whole brain. To process the blood sample, 300 μL blood was mixed with 600 μL of ice-cold acetonitrile containing the IS at 200 ng/mL, followed by centrifugation at 10,000 rpm, 4 °C for 10 min. To process the brain sample, 250 μL of ice-cold PBS was added to the isolated brain and homogenized at 0 °C, followed by mixing with 1 mL of ice-cold acetonitrile containing the IS. The brain sample was then centrifuged at 10,000 rpm, 4 °C for 10 min. The supernatants were collected from the blood sample (600 μL) and the brain sample (1 mL), respectively, and dried under vacuum. The blood and brain samples were reconstituted in 100 μL of 20% acetonitrile. The samples were then centrifuged at 13,000 rpm, 4 °C for 5 min to remove the lipid content. The supernatants were collected from the blood and brain samples and analyzed by LC-MS/MS.

For the next series, the system named is respiration in mice. Also on record: method as in PMID 38005269. As to conditions: high doses up to 15 times the ED50, mice; cited from earlier work.
In series [2] the test system is physical dependence in mice. Details: method as in PMID 38005269. As to conditions: chronic administration, naloxone-precipitated withdrawal; cited from earlier work.

Like-named read-outs stand apart in the source and are kept apart here. Where a SMILES comes first, the peptide text is derived from it. Bridges are numbered along the chain shown (N, C = ends). [ ]: non-standard residue; d: D form. 2Abz = Nc1ccccc1C(=O)O; Dap = NC[C@H](N)C(=O)O

One may read the fraction remaining as what is left of the initial amount, in per cent. As for `C[C@@H](O)[C@@H]1NC(=O)[C@H](CNC(=O)c2ccccc2N)NC(=O)[C@H](NC(=O)[C@@H](N)Cc2ccc(O)cc2)CCCCNC(=O)CNC1=O` [CycloAnt] (H-Y[dK][Dap](2Abz)TG; lactam 2-C), in “Stability in mouse serum”, the fraction remaining at 8 h, 20 µM stood at 82.3%. For the same compound, the Tmax in series [1] (brain, read-out: time of maximum concentration in brain (converted)) is 15 min; in series [1] (whole blood, read-out: time of maximum concentration in blood (converted)), 15 min. Further, the Cmax was 0.07 µM in series [1] (assuming density of brain tissue 1 g/mL, read-out: maximum concentration in brain (Cmax,br)); 46 ng/g in series [1] (perfused brain, read-out: maximum concentration in brain (Cmax,br)); 0.411 µg/mL in series [1] (plasma, read-out: maximum concentration in mouse plasma (Cmax,pl)). Besides, the AUC in series [1] (plasma, 0-60 min, read-out: AUCbld (plasma) (converted)) was 0.173 µg·h/mL. Moreover, in the series on respiration in mice, the respiratory depression entry is given as “does not produce any respiratory depression”. In addition, in series [2], the physical dependence result is recorded as “significantly reduced physical dependence”.
